In patent US6583170B1, “2-Phenyl-1-[4-(amino-1-yl-alk-1-ynyl)-benzyl]-1H-indol-5-ol and estrogen formulations” (Wyeth, priority 1998, dated 2003):
Values joined by “and” are separate entries in the source; they are usually repeats but may differ in a detail not shown here. Equal entries are not always repeated. Each block holds one compound with its values, some of them ahead of it.

How the values were obtained:
[1] = system: uterus wet weight, immature Sprague-Dawley rats; experiment: Rat Uterotrophic/Antiuterotrophic Bioassay; type: in vivo; details: day 4; for uterine wet weight, 10 μG: 10 uG compound daily ip; for uterine wet weight, 10 μG / uterine wet weight, 100 μG / uterine wet weight, 100 μG + 1 μG 17β-estradiol: immature female rats; for uterine wet weight, 100 μG: 100 uG compound daily ip; for uterine wet weight, 100 μG + 1 μG 17β-estradiol: 100 uG compound + 1 uG 17β-estradiol daily ip
Description: Rat Uterotrophic/Antiuterotrophic Bioassay The estrogenic and antiestrogenic properties of the compounds were determined in an immature rat uterotrophic assay (4 day) that (as described previously by L. J. Black and R. L. Goode, Life Sciences, 26, 1453 (1980)). Immature Sprague-Dawley rats (female, 18 days old) were tested in groups of six. […] A small section of one horn was submitted for histology and the remainder used to isolate total RNA in order to evaluate complement component 3 gene expression.

Ishikawa cells = experiment: Ishikawa Cell Alkaline Phosphatase Assay; type: cell-based, human; details: compound alone; percent of response related to 1 nM 17β-estradiol; 48 h
Description: Ishikawa Cell Alkaline Phosphatase Assay Cell Maintenance and Treatment: […] Cells were treated for 48 h prior to assay. […] Sample population for at each dose was n=8. Alkaline Phosphatase Assay: […] Plates are placed at -80° C. for a minimum of 15 minutes. Plates are thawed at 37° C. followed by the addition of 150 μL of 0.1 M Tris-HCl, pH 9.8, containing 4 mM para-nitrophenylphosphate (pNPP) to each well (final concentration, 3 mM pNPP). Absorbance and slope calculations were made using the […] Application program (Bio-Tek Instruments, Inc., Winooski, VT.). […] Various compounds were assayed for estrogenic activity by the alkaline phosphatase method and corresponding ED50 values (95% C.I.) were calculated. The four listed in the following were used as as reference standards: A description of these methods is described by Holinka, […]., Kuramoto, H. and Gurpide, E. (1986) Effects of steroid hormones and antisteroids on alkaline phosphatase activity in human endometrial cancer cells (Ishikawa Line). Cancer Research, 46:2771-2774, and by […]. and […] simple and sensitive microtiter plate estrogen bioassay based on stimulation alkaline phosphatase in Ishikawa cells; […] Endocrinology, 6:2757-2762.

estrogen receptor = biological target: T1, estrogen receptor (Homo sapiens, UniProt P03372); experiment: In Vitro Estrogen Receptor Binding Assay ([3H]-17β-estradiol competition); details: RBA: 17β-estradiol=100; cytosol of CHO cells overexpressing the estrogen receptor
T1 construct: expressed in transfected cells; host or cells: CHO cells, ribosome-free cytosol
T1 sequence (P03372 1-595): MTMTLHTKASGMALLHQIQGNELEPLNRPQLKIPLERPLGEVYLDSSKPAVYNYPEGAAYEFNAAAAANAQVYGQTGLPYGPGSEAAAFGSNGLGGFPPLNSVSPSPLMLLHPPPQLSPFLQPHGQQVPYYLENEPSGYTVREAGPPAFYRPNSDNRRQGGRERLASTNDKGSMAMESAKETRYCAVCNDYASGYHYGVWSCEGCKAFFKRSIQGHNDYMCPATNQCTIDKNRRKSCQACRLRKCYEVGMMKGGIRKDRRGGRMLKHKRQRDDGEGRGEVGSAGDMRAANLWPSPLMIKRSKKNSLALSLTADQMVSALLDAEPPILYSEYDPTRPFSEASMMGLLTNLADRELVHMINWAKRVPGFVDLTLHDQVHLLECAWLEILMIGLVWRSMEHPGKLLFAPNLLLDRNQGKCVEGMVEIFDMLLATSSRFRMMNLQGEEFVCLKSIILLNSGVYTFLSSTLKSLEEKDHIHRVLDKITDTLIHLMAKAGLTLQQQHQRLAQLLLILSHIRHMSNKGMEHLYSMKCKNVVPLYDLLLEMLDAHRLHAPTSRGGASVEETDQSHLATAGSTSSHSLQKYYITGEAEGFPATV

Structure (SMILES): O=C(c1ccc(OCCN2CCCCC2)cc1)c1c(-c2ccc(O)cc2)sc2cc(O)ccc12 [Raloxifene]
uterine wet weight, 10 μG [1]: 47.5 mg | uterine wet weight, 100 μG [1]: 43.2 mg | % Activation (Ishikawa cells): 5%

melting point: 174 to 176 °C
Structure (SMILES): Cc1c(-c2ccc(O)cc2)n(Cc2ccc(C#CCN3CCCC3)cc2)c2ccc(O)cc12

Estrogen Receptor Affinity (RBA) (estrogen receptor): 53
Structure (SMILES): Cc1c(-c2ccc(O)cc2)n(Cc2ccc(C#CCN(C)C)cc2)c2ccc(O)cc12 [Example 4, 2-(4-Hydroxy-phenyl)-3-methyl-1-[4-(3-N,N-dimethyl-1-yl-prop-1-ynyl)-benzyl]-1H-indol-5-ol]
uterine wet weight, 10 μG [1]: 56.0 mg | uterine wet weight, 100 μG + 1 μG 17β-estradiol [1]: 77.6 mg | uterine wet weight, 100 μG [1]: 84.0 mg

Estrogen Receptor Affinity (RBA) (estrogen receptor): 23
Structure (SMILES): Cc1c(-c2ccc(O)cc2)n(Cc2ccc(C#CCN3CCCCC3)cc2)c2ccc(O)cc12 [Example 5, 2-(4-Hydroxy-phenyl)-3-methyl-1-[4-(3-piperidin-1-yl-prop-1-vinyl)-benzyl]-1H-indol-5-ol]
uterine wet weight, 10 μG [1]: 55.6 mg | uterine wet weight, 100 μG + 1 μG 17β-estradiol [1]: 66.8 mg | uterine wet weight, 100 μG [1]: 71.3 mg

Structure (SMILES): CC/C(=C(\c1ccccc1)c1ccc(OCCN(C)C)cc1)c1ccccc1 [Tamoxifen]
uterine wet weight, 10 μG [1]: 69.6 mg | uterine wet weight, 100 μG [1]: 71.4 mg | % Activation (Ishikawa cells): 0%

Structure (SMILES): C[C@]12CC[C@@H]3c4ccc(O)cc4CC[C@H]3[C@@H]1CC[C@@H]2O [17β-estradiol]
uterine wet weight, 1 μG 17β-estradiol ([1]; 1 uG 17β-estradiol daily ip, positive control of each experiment): 1 μG 17β-estradiol = 98.2 mg and 1 μG 17β-estradiol = 90.2 mg and 1 μg 17β-estradiol = 82.8 mg
